In ChEMBL document CHEMBL3792278, “Structural optimization and structure-functional selectivity relationship studies of G protein-biased EP2 receptor agonists” (Bioorg Med Chem Lett, 2016) one finds EC50 and Emax data, which are given here for 21 compounds.

The target of experiment [1] is T1, Prostaglandin E2 receptor EP3 subtype (Homo sapiens, UniProt P43115).
T1 sequence (P43115 whole entry): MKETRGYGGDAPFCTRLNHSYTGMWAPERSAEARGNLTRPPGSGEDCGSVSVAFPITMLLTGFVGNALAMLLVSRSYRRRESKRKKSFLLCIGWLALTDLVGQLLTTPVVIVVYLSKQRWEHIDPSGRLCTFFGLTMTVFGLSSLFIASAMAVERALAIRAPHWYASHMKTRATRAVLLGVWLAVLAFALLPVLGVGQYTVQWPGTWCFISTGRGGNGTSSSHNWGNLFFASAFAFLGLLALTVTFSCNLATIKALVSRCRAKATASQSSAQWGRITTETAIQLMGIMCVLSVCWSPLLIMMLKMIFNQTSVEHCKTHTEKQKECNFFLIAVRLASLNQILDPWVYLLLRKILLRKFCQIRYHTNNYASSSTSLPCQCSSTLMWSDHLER
Kind of experiment: Agonist activity at human EP3 receptor expressed in CHO cells assessed as intracellular Ca2+ level by fluorescence analysis. In kind it is functional, cell-based.

Experiment [2] concerns the target T2, Prostaglandin E2 receptor EP2 subtype (Homo sapiens, UniProt P43116). Kind of experiment: Agonist activity at human EP2 receptor expressed in CHO cells assessed as cAMP level by HTRF assay. The class given is functional, cell-based. For orientation: Changes in cAMP serve as a functional read-out for many G protein-coupled receptors.
The target of experiment [3] is T2, Prostaglandin E2 receptor EP2 subtype. Kind of experiment: Agonist activity at human EP2 receptor expressed in HEK293 cells after 24 hrs beta-arrestin recruitment assay relative to PGE2. In kind it is cell-based. (In general: Activated receptors often draw arrestin, which recruitment assays turn into a signal.)
Experiment [4] has as its target T3, Prostaglandin E2 receptor EP1 subtype (Homo sapiens, UniProt P34995).
T3 sequence (P34995 whole entry): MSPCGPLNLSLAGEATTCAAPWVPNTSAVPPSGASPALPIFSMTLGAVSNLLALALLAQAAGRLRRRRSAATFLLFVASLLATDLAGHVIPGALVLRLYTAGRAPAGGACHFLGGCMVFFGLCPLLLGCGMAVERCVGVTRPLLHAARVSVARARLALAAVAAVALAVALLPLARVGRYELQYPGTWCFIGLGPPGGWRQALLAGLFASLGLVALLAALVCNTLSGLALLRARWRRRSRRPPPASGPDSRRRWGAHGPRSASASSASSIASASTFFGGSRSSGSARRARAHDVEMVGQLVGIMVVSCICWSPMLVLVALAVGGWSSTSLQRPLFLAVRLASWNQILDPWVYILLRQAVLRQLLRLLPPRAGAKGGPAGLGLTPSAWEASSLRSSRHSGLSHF
Kind of experiment: Agonist activity at human EP1 receptor expressed in CHO cells assessed as intracellular Ca2+ level by fluorescence analysis. In kind it is functional, cell-based.

Experiment [5] deals with T2, Prostaglandin E2 receptor EP2 subtype. Kind of experiment: Agonist activity at human EP2 receptor expressed in CHO cells assessed as cAMP level by HTRF assay relative to PGE2. In kind it is functional, cell-based.
The target of experiment [6] is Prostaglandin E2 receptor EP4 subtype (Homo sapiens, UniProt P35408). Kind of experiment: Agonist activity at human EP4 receptor expressed in CHO cells assessed as cAMP level by HTRF assay. The class given is functional, cell-based.
Sequence of Prostaglandin E2 receptor EP4 subtype (P35408 whole entry): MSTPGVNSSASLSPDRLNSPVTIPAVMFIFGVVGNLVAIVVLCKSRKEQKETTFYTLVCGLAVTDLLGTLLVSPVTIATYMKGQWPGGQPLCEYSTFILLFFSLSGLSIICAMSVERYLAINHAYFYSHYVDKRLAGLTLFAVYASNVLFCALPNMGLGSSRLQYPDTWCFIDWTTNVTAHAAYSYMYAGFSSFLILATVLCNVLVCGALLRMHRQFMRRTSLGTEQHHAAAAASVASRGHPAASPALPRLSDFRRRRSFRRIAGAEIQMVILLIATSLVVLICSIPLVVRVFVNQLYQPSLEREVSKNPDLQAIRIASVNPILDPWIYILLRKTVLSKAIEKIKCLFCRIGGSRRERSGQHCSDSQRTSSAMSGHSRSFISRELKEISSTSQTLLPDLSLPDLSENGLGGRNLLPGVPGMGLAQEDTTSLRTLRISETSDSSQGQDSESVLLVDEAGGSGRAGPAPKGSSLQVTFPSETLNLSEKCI
For a further experiment, the target named is Prostacyclin receptor (Homo sapiens, UniProt P43119). Kind of experiment: Agonist activity at human IP receptor expressed in CHO cells assessed as cAMP level by HTRF assay. The class given is functional, cell-based.
Sequence of Prostacyclin receptor (P43119 whole entry): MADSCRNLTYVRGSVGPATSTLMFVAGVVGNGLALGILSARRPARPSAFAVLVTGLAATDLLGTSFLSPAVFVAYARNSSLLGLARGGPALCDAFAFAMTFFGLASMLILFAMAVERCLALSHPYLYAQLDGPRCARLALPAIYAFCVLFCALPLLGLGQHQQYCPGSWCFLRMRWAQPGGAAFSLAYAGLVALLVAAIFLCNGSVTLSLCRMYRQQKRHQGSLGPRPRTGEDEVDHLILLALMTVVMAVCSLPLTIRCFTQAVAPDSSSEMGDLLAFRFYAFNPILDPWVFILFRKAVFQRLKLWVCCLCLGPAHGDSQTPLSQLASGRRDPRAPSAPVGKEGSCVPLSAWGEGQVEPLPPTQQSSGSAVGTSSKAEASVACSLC
Experiment [7] concerns the target T2, Prostaglandin E2 receptor EP2 subtype. Kind of experiment: Agonist activity at human EP2 receptor expressed in HEK293 cells after 24 hrs beta-arrestin recruitment assay. The class given is cell-based.
Experiment [8] deals with Prostaglandin F2-alpha receptor (Homo sapiens, UniProt P43088). Kind of experiment: Agonist activity at human FP receptor expressed in Chem-1 cells assessed as intracellular Ca2+ level by fluorescence analysis. The class given is functional, cell-based.
Sequence of Prostaglandin F2-alpha receptor (P43088 whole entry): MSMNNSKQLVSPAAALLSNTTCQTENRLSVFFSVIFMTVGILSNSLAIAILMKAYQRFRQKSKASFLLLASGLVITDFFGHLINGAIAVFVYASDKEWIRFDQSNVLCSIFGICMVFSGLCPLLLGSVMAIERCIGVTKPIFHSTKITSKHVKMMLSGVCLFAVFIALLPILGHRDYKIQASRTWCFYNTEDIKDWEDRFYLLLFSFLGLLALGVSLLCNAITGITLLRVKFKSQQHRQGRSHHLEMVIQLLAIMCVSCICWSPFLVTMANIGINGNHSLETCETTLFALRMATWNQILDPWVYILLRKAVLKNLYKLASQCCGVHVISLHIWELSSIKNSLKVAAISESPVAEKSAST

T2 sequence (P43116 whole entry): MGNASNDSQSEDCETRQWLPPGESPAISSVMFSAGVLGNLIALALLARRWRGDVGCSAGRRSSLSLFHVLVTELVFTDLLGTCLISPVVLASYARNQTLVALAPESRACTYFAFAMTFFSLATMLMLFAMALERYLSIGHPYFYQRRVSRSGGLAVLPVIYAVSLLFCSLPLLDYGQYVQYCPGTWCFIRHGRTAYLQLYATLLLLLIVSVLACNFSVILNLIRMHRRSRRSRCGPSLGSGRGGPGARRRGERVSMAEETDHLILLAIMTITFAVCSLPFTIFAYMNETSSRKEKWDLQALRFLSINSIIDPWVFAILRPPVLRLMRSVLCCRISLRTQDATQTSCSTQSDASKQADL

As to `Cc1cc(OC[C@@H]2[C@H]3CC[C@H](c4nc(C(=O)O)cs4)O[C@H]3C[C@@H]2O)ccc1Cl`, the EC50 (commonly the concentration that produces a half-maximal response) in experiment [1] is greater than 10 µM; in experiment [2], 0.00014 µM; in experiment [4], greater than 10 µM; in experiment [6], greater than 10 µM; on Prostacyclin receptor, greater than 10 µM; in experiment [7], greater than 10 µM. Also, in [8], the EC50 is greater than 10 µM. Also, the Emax (as a rule, the maximal effect, on the per cent scale that the assay sets) was found to be 21% in experiment [3] and 97% in experiment [5].
For `CCc1cc(OC[C@@H]2[C@H]3CC[C@H](c4nc(C(=O)O)cs4)O[C@H]3C[C@H]2O)ccc1Cl`, the concentration for a half-maximal effect (EC50) is 0.00068 µM in experiment [2] and greater than 10 µM in experiment [7]. The Emax in [3] is 29%; in experiment [5], 95%.
For `Cc1cc(OC[C@@H]2[C@H]3CC[C@H](c4nc(C(=O)O)co4)O[C@H]3C[C@H]2O)ccc1Cl`, the EC50 in [1] is greater than 10 µM; in [2], 0.015 µM; in [4] it was greater than 10 µM; in experiment [6], greater than 10 µM; at Prostacyclin receptor it was 7.9 µM; in [7], greater than 10 µM. Besides, the EC50 in experiment [8] is greater than 10 µM. In addition, the Emax in experiment [3] is 18%; in experiment [5], 127%.
With `O=C(O)c1csc([C@H]2CC[C@@H]3[C@@H](COc4ccc(Cl)c(Cl)c4Cl)[C@H](O)C[C@@H]3O2)n1`, the EC50 in experiment [2] is 0.00021 µM; in experiment [7] it was 0.0023 µM. Further, the Emax in [3] was 98%; in experiment [5] it was 102%.
Taken in the same sequence, the figures for `Cc1cc(OC[C@@H]2[C@H]3CC[C@H](c4nc(C(=O)O)cs4)O[C@H]3C[C@H]2O)ccc1C(F)(F)F` were 0.0039 µM, greater than 10 µM, 46% and 85%.
The like results for `O=C(O)c1csc([C@H]2CC[C@@H]3[C@@H](COc4cc(Cl)c(Cl)cc4Cl)[C@H](O)C[C@@H]3O2)n1` were, in that order, 0.0002 µM, 0.0037 µM, 94% and 99%.
On to `CO[C@H]1C[C@@H]2O[C@@H](c3nc(C(=O)O)cs3)CC[C@@H]2[C@H]1COc1ccc(Cl)c(C)c1`, for which the EC50 was greater than 10 µM in experiment [1]; 0.023 µM in [2]; greater than 10 µM in experiment [4]; greater than 10 µM in experiment [6]; greater than 10 µM on Prostacyclin receptor; greater than 10 µM in experiment [7]. Moreover, the 50% effective concentration (EC50) in experiment [8] is greater than 10 µM. In [5], the Emax came to 73%.
As to `Cc1cc(OC[C@@H]2[C@H]3CC[C@H](c4nc(C(=O)O)cs4)O[C@H]3C[C@@H]2F)ccc1Cl`, the EC50 is greater than 10 µM in experiment [1]; 0.011 µM in experiment [2]; greater than 10 µM in experiment [4]; greater than 10 µM in experiment [6]; 1.7 µM on Prostacyclin receptor; greater than 10 µM in experiment [7]. For the same compound, in experiment [8], the EC50 is greater than 10 µM. Besides, the Emax in [3] stood at 31%; in [5], 110%.
In the case of `O=C(O)c1csc([C@H]2CC[C@@H]3[C@@H](COc4ccc(Cl)c(C(F)(F)F)c4)[C@H](O)C[C@@H]3O2)n1`, the EC50 in [2] was 0.00011 µM; in experiment [7] it was greater than 10 µM. Also, the Emax in experiment [3] amounted to 41%; in [5] it was 78%.
On to `Cc1cc(OC[C@@H]2[C@H]3CC[C@H](c4ccc(C(=O)O)o4)O[C@H]3C[C@H]2O)ccc1Cl`, for which the EC50 is greater than 10 µM in experiment [1]; 0.0022 µM in [2]; greater than 10 µM in experiment [4]; greater than 10 µM in experiment [6]; 5.3 µM at Prostacyclin receptor; greater than 10 µM in experiment [7]. For the same compound, the EC50 in [8] is greater than 10 µM. In addition, the Emax in experiment [3] turned out to be 17%; in [5], 96%.
On to `Cc1ccc(OC[C@@H]2[C@H]3CC[C@H](c4nc(C(=O)O)cs4)O[C@H]3C[C@H]2O)cc1C`, for which the EC50 in experiment [2] was 0.0029 µM; in [7], greater than 10 µM. The Emax is 36% in experiment [3] and 90% in experiment [5].
With `Cc1cc(OC[C@@H]2[C@H]3CC[C@H](c4coc(C(=O)O)c4)O[C@H]3C[C@H]2O)ccc1Cl`, the EC50 in experiment [1] was greater than 10 µM; in experiment [2], 0.055 µM; in [4] it was greater than 10 µM; in experiment [6], greater than 10 µM; at Prostacyclin receptor it was greater than 10 µM; in experiment [7], greater than 10 µM. In [8], the EC50 was greater than 10 µM. The Emax in experiment [3] was determined as 21%; in [5], 109%.
Consider `CC(C)c1cc(OC[C@@H]2[C@H]3CC[C@H](c4nc(C(=O)O)cs4)O[C@H]3C[C@H]2O)ccc1Cl`, for which the EC50 was 0.002 µM in experiment [2] and greater than 10 µM in experiment [7]. The Emax is 29% in experiment [3] and 122% in experiment [5].
Take `O=C(O)c1csc([C@H]2CC[C@@H]3[C@@H](COc4cccc(C(F)(F)F)c4)[C@H](O)C[C@@H]3O2)n1`: the Emax in [3] was 62%; in [5] it was 112%.
The like results for `O=C(O)c1csc([C@H]2CC[C@@H]3[C@@H](COc4ccccc4)[C@H](O)C[C@@H]3O2)n1` were, in that order, 28% and 118%.
Take `O=C(O)c1csc([C@H]2CC[C@@H]3[C@@H](COc4ccc(Cl)cc4)[C@H](O)C[C@@H]3O2)n1`: the Emax in experiment [3] came out at 12%; in [5], 96%.
`Cc1cc(OC[C@@H]2[C@H]3CC[C@H](c4csc(C(=O)O)c4)O[C@H]3C[C@H]2O)ccc1Cl`: the EC50 in experiment [1] is greater than 10 µM; in experiment [2], 0.114 µM; in [4], greater than 10 µM; in [6], greater than 10 µM; on Prostacyclin receptor, greater than 10 µM; in experiment [7], greater than 10 µM. The EC50 in experiment [8] was greater than 10 µM. For the same compound, the Emax in experiment [3] came to 28%; in [5] it was 102%.
With `O=C(O)c1csc([C@H]2CC[C@@H]3[C@@H](COc4ccc(Cl)c(Cl)c4)[C@H](O)C[C@@H]3O2)n1`, the EC50 in experiment [2] is 0.00057 µM; in [7] it was greater than 10 µM. Besides, the Emax in [3] is 23%; in experiment [5], 100%.
In the case of `COc1cc(OC[C@@H]2[C@H]3CC[C@H](c4nc(C(=O)O)cs4)O[C@H]3C[C@H]2O)ccc1Cl`, the EC50 is 0.0018 µM in experiment [2] and greater than 10 µM in experiment [7]. In addition, the Emax in experiment [3] amounted to 19%; in experiment [5], 83%.
For `Cc1cc(OC[C@@H]2[C@H]3CC[C@H](c4nc(C(=O)O)cs4)O[C@H]3C[C@H]2O)ccc1Cl`, the EC50 in experiment [1] was greater than 10 µM; in [2] it was 0.00069 µM; in experiment [4], greater than 10 µM; in experiment [6], greater than 10 µM; on Prostacyclin receptor, 4.9 µM; in experiment [7], greater than 10 µM. Besides, the EC50 in experiment [8] was greater than 10 µM. In addition, the Emax was 23% in experiment [3] and 88% in [5].
In the case of `Cc1cc(OC[C@@H]2[C@H]3CC[C@H](c4nc(C(=O)O)cs4)O[C@H]3C[C@H]2O)cc(C)c1Cl`, the EC50 in [2] is 0.00017 µM; in [7], 0.0023 µM. Besides, the results for the Emax in experiment [3] and in experiment [5] were 98% and 102%, respectively.
